Data from US20090239846A1, “Novel Compounds” (Glaxo Group Limited, priority 2005, published 2009).
pIC50: −log10 of the molar value. Structures can show the parent of a compound that is named as a salt. Where two headings read alike, the source gives them in different places.

Columns and labels:
TNFalpha = test: LPS-stimulated cytokine production in human whole blood; format: cell-based
Experimental: Assay: Test compound concentrations were prepared at 10× concentrations and LPS prepared at 1 ug/ml (final conc. of 50 ng/ml LPS) and added in 50 uL volumes to 1.5 mL eppendorf tubes. Heparinized human whole blood was obtained from healthy volunteers and was dispensed into eppendorf tubes or multiwell plates containing compounds and LPS in 0.2-0.4 mL volumes and the tubes incubated at 37 C. In some studies, compound was incubated with blood for up to 30 min prior to addition of LPS. Following a 4 hour incubation, the tubes or plates were centrifuged to remove cells and plasma was withdrawn and frozen at −80 C. Cytokine measurement: IL-1beta and/or TNFalpha were quantified using a standardized ELISA, or similar technology. Concentrations of IL-1beta or TNFalpha were determined from standard curves of the appropriate cytokine and IC50 values for test compound (concentration that inhibited 50% of LPS-stimulated cytokine production) were calculated by linear regression analysis.

Recombinant human p38α = molecular target: T1, Recombinant human p38α (Homo sapiens, UniProt Q16539); test: Fluorescence anisotropy kinase binding assay (standard or low volume); conditions: for active in the assay (pIC50, p38α binding): 12 nM p38α, 5 nM fluorescent ligand
T1 construct: GST; made in house
Procedure, shortened: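 Activated GST-tagged recombinant human p38α (pre-activated with MBP-MKK6 DD) at 12 nM final with 5 nM rhodamine green-labelled pyridinylimidazole tracer in pH 7.5 HEPES/CHAPS/DTT/MgCl2 buffer. Test compound 0.28 nM–16.6 μM or 0.02 nM–25 μM final, 3% or 1.7% DMSO; 30–60 min at room temperature. Fluorescence anisotropy read (ex 485/em 535 nm) for Ki.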

[1] = system: IL-8 production by human neutrophils; test: TNF-stimulated IL-8 production from human neutrophils; format: cell-based; conditions: Neutrophil, bound, not more than 50% inhibition at 100 nM, read-out: IC50
Experimental: TNF-Stimulated IL-8 Production from Human Neutrophils The effect of test compounds on TNF-stimulated IL8 production by human neutrophils is measured as follows. Neutrophils are prepared from blood obtained from consenting donors, using standard methods. Blood is collected in heparinized syringes and layered over histopaque (30 ml/20 ml). Following centrifugation, the red cell pellet is resuspended in PBS and purified over a dextran gradient. Red blood cells are lysed with water for 40 sec, remaining granulocytes collected by centrifugation and resuspended at 1.5×10̂6 cells/ml. Cells are added (0.5-1 ml) to 48 well plates already containing compound at 1000×final concentration in neat DMSO or 10% DMSO in RPMI1640 with 10% FBS. TNF (final concentration 100 ng/ml) is used as the stimulus. Cells incubated for approximately 20 hrs at 37° C., 5% CO2. Levels of IL-8 in the cell free supernatant are determined by sandwich ELISA, and inhibition relative to a control with DMPO but no compound is calculated.

[2] = LPS-stimulated TNF-alpha, bound, read-out: IC50
[3] = second end given as 'less than', read-out: pIC50, broad range of data upon multiple runs (converted)
[4] = bound, read-out: apparent pIC50 (converted)

T1 sequence (Q16539 whole entry): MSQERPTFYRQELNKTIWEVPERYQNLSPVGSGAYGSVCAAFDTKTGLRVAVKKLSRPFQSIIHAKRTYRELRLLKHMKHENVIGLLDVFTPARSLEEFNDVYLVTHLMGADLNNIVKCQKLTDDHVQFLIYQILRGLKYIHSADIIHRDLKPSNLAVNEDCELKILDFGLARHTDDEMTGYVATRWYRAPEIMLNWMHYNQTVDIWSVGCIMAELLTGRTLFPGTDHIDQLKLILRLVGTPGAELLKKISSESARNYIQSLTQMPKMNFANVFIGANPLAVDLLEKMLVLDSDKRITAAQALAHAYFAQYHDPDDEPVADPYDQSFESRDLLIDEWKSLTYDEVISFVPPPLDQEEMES

| pIC50 (TNFalpha; [2]) | melting point | SMILES | further results |
| --- | --- | --- | --- |
| < 6.00 |  | Cc1ccc(C(=O)NC[C@@H](C)O)cc1-c1nc(NCCN(C)C)nc2c1CNC(=O)N2c1c(F)cccc1F [Example 128, 3-(8-(2,6-difluorophenyl)-2-{[2-(dimethylamino)ethyl]amino}-7-oxo-5,6,7,8-tetrahydropyrimido[4,5-d]pyrimidin-4-yl)-N-[(2R)-2-hydroxypropyl]-4-methylbenzamide] |  |
| < 6.00 | 201 to 205 °C (dec.) | CCN(CC)C(=O)c1ccc(C)c(-c2nc(N3CCN(C)CC3)nc3c2CNC(=O)N3c2c(F)cccc2F)c1 [Example 162, 3-[8-(2,6-difluorophenyl)-2-(4-methyl-1-piperazinyl)-7-oxo-5,6,7,8-tetrahydropyrimido[4,5-d]pyrimidin-4-yl]-N,N-diethyl-4-methylbenzamide] | IC50 (Recombinant human p38α; [3]): ≥ 1.26 µM |
| < 6.00 |  | CCc1ccc(C(=O)O)cc1-c1nc(NCCN(C)C)nc2c1CNC(=O)N2c1c(F)cccc1F [Example 141, 3-(8-(2,6-difluorophenyl)-2-{[2-(dimethylamino)ethyl]amino}-7-oxo-5,6,7,8-tetrahydropyrimido[4,5-d]pyrimidin-4-yl)-4-ethylbenzoic acid] | IC50 (Recombinant human p38α; [3]): ≥ 1.26 µM |
| < 6.00 |  | Cc1ccc(C(=O)NC(C)C)cc1-c1nc(N2CCCCCC2)nc2c1CNC(=O)N2c1c(F)cccc1F [Example 66, 3-[8-(2,6-difluorophenyl)-2-(hexahydro-1H-azepin-1-yl)-7-oxo-5,6,7,8-tetrahydropyrimido[4,5-d]pyrimidin-4-yl]-4-methyl-N-(1-methylethyl)benzamide] |  |
|  | 89 to 91 °C | CCN(CC)C(=O)c1ccc(C)c(-c2nc(NCCNC(C)C)nc3c2CNC(=O)N3c2c(F)cccc2F)c1 [Example 160, 3-[8-(2,6-difluorophenyl)-2-({2-[(1-methylethyl)amino]ethyl}amino)-7-oxo-5,6,7,8-tetrahydropyrimido[4,5-d]pyrimidin-4-yl]-N,N-diethyl-4-methylbenzamide] | IC50 (Recombinant human p38α; [4]): > 15.8 µM; pIC50 [1]: < 7.00 |
|  | 114 to 118 °C | Cc1ccc(C(=O)N(C)C)cc1-c1nc(N(C)CCCN(C)C)nc2c1CNC(=O)N2c1c(F)cccc1F [Example 154, 3-{8-(2,6-difluorophenyl)-2-[[3-(dimethylamino)propyl](methyl)amino]-7-oxo-5,6,7,8-tetrahydropyrimido[4,5-d]pyrimidin-4-yl}-N,N,4-trimethylbenzamide] | active in the assay (pIC50, p38α binding) (Recombinant human p38α): active; pIC50 [1]: < 7.00 |
| < 6.00 |  | CNC(=O)c1ccc(C)c(-c2nc(S(C)(=O)=O)nc3c2CNC(=O)N3c2c(F)cccc2F)c1 [163(b), 3-[8-(2,6-difluorophenyl)-2-(methylsulfonyl)-7-oxo-5,6,7,8-tetrahydropyrimido[4,5-d]pyrimidin-4-yl]-N,4-dimethylbenzamide] | active in the assay (pIC50, p38α binding) (Recombinant human p38α): active |
| < 6.00 | 106 to 108 °C | CCN(CC)C(=O)c1ccc(C)c(-c2nc(N(C)CCCN(C)C)nc3c2CNC(=O)N3c2c(F)cccc2F)c1 [Example 161, 3-{8-(2,6-difluorophenyl)-2-[[3-(dimethylamino)propyl](methyl)amino]-7-oxo-5,6,7,8-tetrahydropyrimido[4,5-d]pyrimidin-4-yl}-N,N-diethyl-4-methylbenzamide] | active in the assay (pIC50, p38α binding) (Recombinant human p38α): active |
|  | 159 to 162 °C | Cc1ccc(C(=O)N(C)C)cc1-c1nc(N2CCN(C)CC2)nc2c1CNC(=O)N2c1c(F)cccc1F [149(c), 3-[8-(2,6-difluorophenyl)-2-(4-methyl-1-piperazinyl)-7-oxo-5,6,7,8-tetrahydropyrimido[4,5-d]pyrimidin-4-yl]-N,N,4-trimethylbenzamide] | active in the assay (pIC50, p38α binding) (Recombinant human p38α): active; pIC50 [1]: < 7.00 |
| < 6.00 |  | Cc1ccc(C(=O)NC[C@H](C)O)cc1-c1nc(NCCN(C)C)nc2c1CNC(=O)N2c1c(F)cccc1F [Example 129, 3-(8-(2,6-difluorophenyl)-2-{[2-(dimethylamino)ethyl]amino}-7-oxo-5,6,7,8-tetrahydropyrimido[4,5-d]pyrimidin-4-yl)-N-[(2S)-2-hydroxypropyl]-4-methylbenzamide] |  |
|  |  | Cc1c(F)cc(C(=O)NC(C)C)cc1-c1nc(NCCN(C)C)nc2c1CNC(=O)N2c1c(F)cccc1F [Example 111(c), 3-(8-(2,6-difluorophenyl)-2-{[2-(dimethylamino)ethyl]amino}-7-oxo-5,6,7,8-tetrahydropyrimido[4,5-d]pyrimidin-4-yl)-5-fluoro-4-methyl-N-(1-methylethyl)benzamide] | pIC50 (TNFalpha; upper end printed as greater than 0.1 uM, read-out: IC50, range of data upon multiple runs): 7.00 to 7.40 |
| < 6.00 |  | Cc1ccc(C(=O)NC(C)C)cc1-c1nc(N2CCC(n3c(=O)[nH]c4cc(Cl)ccc43)CC2)nc2c1CNC(=O)N2c1c(F)cccc1F [Example 73, 3-[2-[4-(5-chloro-2-oxo-2,3-dihydro-1H-benzimidazol-1-yl)-1-piperidinyl]-8-(2,6-difluorophenyl)-7-oxo-5,6,7,8-tetrahydropyrimido[4,5-d]pyrimidin-4-yl]-4-methyl-N-(1-methylethyl)benzamide trifluoroacetate] |  |
| < 6.00 |  | Cc1ccc(C(=O)Nc2cccc(S(N)(=O)=O)c2)cc1-c1nc(NCCN(C)C)nc2c1CNC(=O)N2c1c(F)cccc1F [Example 226, N-[3-(aminosulfonyl)phenyl]-3-(8-(2,6-difluorophenyl)-2-{[2-(dimethylamino)-ethyl]amino}-7-oxo-5,6,7,8-tetrahydropyrimido[4,5-d]pyrimidin-4-yl)-4-methylbenzamide] |  |
| < 6.00 |  | Cc1ccc(C(=O)NC(C)C)cc1-c1nc(N2CCCC2)nc2c1CNC(=O)N2c1c(F)cccc1F [Example 67, 3-[8-(2,6-difluorophenyl)-7-oxo-2-(1-pyrrolidinyl)-5,6,7,8-tetrahydropyrimido[4,5-d]pyrimidin-4-yl]-4-methyl-N-(1-methylethyl)benzamide] |  |
|  | 130 to 133 °C | Cc1ccc(C(=O)N(C)C)cc1-c1nc(NCCNC(C)C)nc2c1CNC(=O)N2c1c(F)cccc1F [Example 153, 3-[8-(2,6-difluorophenyl)-2-({2-[(1-methylethyl)amino]ethyl}amino)-7-oxo-5,6,7,8-tetrahydropyrimido[4,5-d]pyrimidin-4-yl]-N,N,4-trimethylbenzamide] | IC50 (Recombinant human p38α; [4]): > 15.8 µM; pIC50 [1]: < 7.00 |
|  | 163 to 165 °C | Cc1ccc(C(=O)N(C)C)cc1-c1nc(NC2CCN(C)CC2)nc2c1CNC(=O)N2c1c(F)cccc1F [Example 155, 3-{8-(2,6-difluorophenyl)-2-[(1-methyl-4-piperidinyl)amino]-7-oxo-5,6,7,8-tetrahydropyrimido[4,5-d]-pyrimidin-4-yl}N,N,4-trimethylbenzamide] | active in the assay (pIC50, p38α binding) (Recombinant human p38α): active; pIC50 [1]: < 7.00 |
| < 6.00 |  | Cc1ccc(C(=O)NC(C)C)cc1-c1nc(N2CCOCC2)nc2c1CNC(=O)N2c1c(F)cccc1F [Example 68, 3-[8-(2,6-difluorophenyl)-2-(4-morpholinyl)-7-oxo-5,6,7,8-tetrahydropyrimido[4,5-d]pyrimidin-4-yl]-4-methyl-N-(1-methylethyl)benzamide trifluoroacetate] |  |
| < 6.00 |  | CCc1ccc(C(=O)Nc2ccc(F)c(F)c2)cc1-c1nc(NCCN(C)C)nc2c1CNC(=O)N2c1c(F)cccc1F [Example 143, N-(3,4-difluorophenyl)-3-(8-(2,6-difluorophenyl)-2-{[2-(dimethylamino)-ethyl]amino}-7-oxo-5,6,7,8-tetrahydropyrimido[4,5-d]pyrimidin-4-yl)-4-ethylbenzamide trifluoroacetate] |  |
